Assay results as given in the NIST ThermoML archive (doi:10.1016/j.jct.2013.05.051).

Details: Liquid, Vibrating tube method

CCCCCCC [heptane]
mass density [kg/m3]
Details | 298.15 K | 313.15 K | 333.15 K | 353.15 K | 373.15 K | 393.15 K
100 kPa | 679.5 | 666.6 | 648.9 | 631.2 | – | –
1000 kPa | 680.4 | 667.6 | 650 | 632.1 | 613.3 | 593.5
5000 kPa | 684.2 | 671.8 | 655 | 637.8 | 620.1 | 601.7
10000 kPa | 688.6 | 676.7 | 660.6 | 644.3 | 627.7 | 610.6
15000 kPa | 692.8 | 681.3 | 665.8 | 650.3 | 634.5 | 618.4
20000 kPa | 696.7 | 685.6 | 670.6 | 655.7 | 640.7 | 625.4
25000 kPa | 700.4 | 689.5 | 675.1 | 660.8 | 646.3 | 631.7
30000 kPa | 704 | 693.5 | 679.4 | 665.5 | 651.6 | 637.5
35000 kPa | 707.4 | 697.1 | 683.4 | 670 | 656.5 | 643
40000 kPa | 710.7 | 700.5 | 687.3 | 674.1 | 661.1 | 648
45000 kPa | 713.8 | 703.9 | 690.9 | 678.1 | 665.5 | 652.8
50000 kPa | 716.8 | 707.2 | 694.4 | 682 | 669.6 | 657.2
55000 kPa | 719.7 | 710.3 | 697.7 | 685.5 | 673.5 | 661.5
60000 kPa | 722.5 | 713.3 | 701 | 689.1 | 677.3 | 665.5
65000 kPa | 725.2 | 716.1 | 704.1 | 692.4 | 680.8 | 669.3
70000 kPa | 727.9 | 718.9 | 707.1 | 695.7 | 684.3 | 673.1
80000 kPa | 732.9 | 724.2 | 712.8 | 701.7 | 690.8 | 680.1
90000 kPa | 737.7 | 729.3 | 718.2 | 707.5 | 696.9 | 686.5
100000 kPa | 742.3 | 734 | 723.2 | 712.8 | 702.6 | 692.5
110000 kPa | 746.6 | 738.6 | 728.1 | 717.9 | 708 | 698.2
120000 kPa | 750.7 | 742.8 | 732.6 | 722.7 | 713 | 703.4
130000 kPa | 754.6 | 747 | 737 | 727.3 | 717.9 | 708.5
140000 kPa | 758.4 | 751.1 | 741.1 | 731.6 | 722.3 | 713.4

CCCCCCCO [heptan-1-ol]
mass density [kg/m3]
Details | 298.15 K | 313.15 K | 333.15 K | 353.15 K | 373.15 K | 393.15 K
100 kPa | 818.7 | 808 | 793.3 | 778.1 | 761.9 | 744.9
1000 kPa | 819.3 | 808.6 | 794 | 778.8 | 762.8 | 745.8
5000 kPa | 821.9 | 811.4 | 797.1 | 782.3 | 766.6 | 750.2
10000 kPa | 824.9 | 814.7 | 800.7 | 786.3 | 771.1 | 755.3
15000 kPa | 828 | 817.9 | 804.3 | 790.2 | 775.5 | 760.1
20000 kPa | 830.8 | 821 | 807.7 | 793.9 | 779.5 | 764.6
25000 kPa | 833.5 | 823.8 | 810.8 | 797.3 | 783.4 | 768.8
30000 kPa | 836.3 | 826.8 | 813.9 | 800.7 | 787.1 | 772.9
35000 kPa | 838.8 | 829.5 | 816.9 | 804 | 790.6 | 776.8
40000 kPa | 841.3 | 832.1 | 819.8 | 807.1 | 794 | 780.4
45000 kPa | 843.8 | 834.7 | 822.4 | 810 | 797.2 | 783.9
50000 kPa | 846.2 | 837.2 | 825.2 | 813 | 800.3 | 787.3
55000 kPa | 848.5 | 839.7 | 827.8 | 815.8 | 803.4 | 790.7
60000 kPa | 850.8 | 842.1 | 830.3 | 818.6 | 806.3 | 793.8
65000 kPa | 853 | 844.4 | 832.9 | 821.2 | 809.2 | 796.8
70000 kPa | 855.2 | 846.7 | 835.3 | 823.8 | 811.9 | 799.8
80000 kPa | 859.4 | 851.1 | 839.9 | 828.7 | 817.2 | 805.5
90000 kPa | 863.5 | 855.3 | 844.5 | 833.5 | 822.3 | 810.9
100000 kPa | 867.3 | 859.3 | 848.7 | 837.9 | 827 | 815.9
110000 kPa | 871.1 | 863.2 | 852.8 | 842.3 | 831.6 | 820.8
120000 kPa | 874.6 | 867 | 856.8 | 846.4 | 835.9 | 825.3
130000 kPa | 878.1 | 870.6 | 860.5 | 850.3 | 840.2 | 829.8
140000 kPa | 881.5 | 874.2 | 864.3 | 854.3 | 844.1 | 834
